Results on 7 molecules are retold here after publication PMC8279408.

The Solubility is the dissolved amount per volume that the medium holds. Low readings indicate little dissolved substance, high ones much dissolved substance. One may read the pIC50 as the IC50 on a negative log10 scale, so that one unit is a factor of ten. The low end stands for a high IC50, the high end for a low IC50.

pIC50: −log10 of the molar value. “Also recorded” adds a separate entry of the source.

The nature of data set [1]: Water solubility. It counts as physicochemical. The settings on record: in distilled water. How it is done: The synthesis of dicyanocobinamide (Cbi) was performed according to previously reported methods.[59] Briefly, to a 10 mL microwave reaction vessel containing a magnetic stir bar were added B12 (cyanocobalamin) (303.8 mg, 0.225 mmol) (see Figures S1–S6), sodium cyanide (NaCN) (36.9 mg, 0.7096 mmol), and 5 mL of EtOH, and the vessel was sealed. The reaction was heated to 120 °C for 10 min. Following completion of the microwave reaction, the remaining solution was transferred and diluted using isopropyl alcohol (iPrOH). The reaction was purified utilizing a normal-phase silica column. The reaction was eluted using 100% methanol (MeOH). The product eluted as a purple product. The isolated product was precipitated utilizing diethyl ether (Et2O) and allowed to dry producing a solid, purple product, 2 (see Figure 2), in 80% yield (187.4 mg, 0.1795 mmol). Solubility was measured to be 400 mg/mL in distilled water.

The subject of data set [2] is shrews. Description: Food intake and body weight (energy balance) in shrews. It counts as in vivo, Suncus murinus. The following applies: 5 nmol/kg IP, single dose, n = 10 shrews.
Procedure: Food intake was evaluated using our custom-made feedometers, consisting of a standard plexiglass rodent housing cage (29 × 19 × 12.7 cm) with mounted food hoppers resting on a plexiglass cup (to account for spillage). Shrews had ad libitum access to powdered food through a circular (3 cm diameter) hole in the cage. Food was removed 1 h prior to the dark onset. […] Food intake was manually measured at 6, 24, and 48 h post injection. BW was measured at 0, 24, and 48 h.
Data set [3] has as its target human glucagon like peptide-1 receptor (human) (UniProt P43220).
Data set [4] deals with patients. The settings on record: over ∼1 year; cited from earlier work.
Data set [5] has as its target rat GLP-1R (rat) (UniProt P32301).
The target of data set [6] is human glucagon like peptide-1 receptor (human) (UniProt P43220). The data set is described as follows: AlphaScreen or HTRF; Taglite fluorescence competitive binding assay (Euroscreen Fast, Cat No. FAST0154B) on CHO-K1 cells at the human GLP-1R; agonist tracer GLP-1red at 4 nM, reference competitor nEx-4; nine concentrations from 1 pM to 1 uM, duplicate independent runs. For orientation: Bead proximity is the source of the signal in Alpha formats.
Sequence of human glucagon like peptide-1 receptor (human) (P43220 24-463): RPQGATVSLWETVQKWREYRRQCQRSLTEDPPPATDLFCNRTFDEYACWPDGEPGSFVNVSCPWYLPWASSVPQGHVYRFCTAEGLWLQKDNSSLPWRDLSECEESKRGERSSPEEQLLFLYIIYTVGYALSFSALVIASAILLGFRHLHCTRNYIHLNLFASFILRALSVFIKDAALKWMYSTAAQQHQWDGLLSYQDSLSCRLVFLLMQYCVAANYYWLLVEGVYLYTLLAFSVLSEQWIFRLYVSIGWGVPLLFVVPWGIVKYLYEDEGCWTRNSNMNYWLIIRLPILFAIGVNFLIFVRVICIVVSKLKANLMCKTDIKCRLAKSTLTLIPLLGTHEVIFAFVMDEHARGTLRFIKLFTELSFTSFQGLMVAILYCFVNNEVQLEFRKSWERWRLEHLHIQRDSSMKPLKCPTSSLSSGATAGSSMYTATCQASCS

Sequence of rat GLP-1R (rat) (P32301 22-463): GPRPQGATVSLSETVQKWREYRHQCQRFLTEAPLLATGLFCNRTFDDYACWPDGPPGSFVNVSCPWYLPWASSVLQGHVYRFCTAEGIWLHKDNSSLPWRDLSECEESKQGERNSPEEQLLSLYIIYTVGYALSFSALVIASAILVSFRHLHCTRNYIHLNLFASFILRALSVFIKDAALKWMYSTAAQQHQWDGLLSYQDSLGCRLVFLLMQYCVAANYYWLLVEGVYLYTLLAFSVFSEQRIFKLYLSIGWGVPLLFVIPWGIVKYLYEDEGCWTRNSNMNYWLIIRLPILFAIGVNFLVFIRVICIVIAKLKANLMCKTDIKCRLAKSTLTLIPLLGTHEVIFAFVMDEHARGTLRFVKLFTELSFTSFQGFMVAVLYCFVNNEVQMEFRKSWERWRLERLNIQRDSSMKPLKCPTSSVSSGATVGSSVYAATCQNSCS

Molecule `C/C1=C2/[N-]C([C@H](CC(N)=O)[C@@]2(C)CCC(=O)NCC(C)O)[C@]2(C)N=C(/C(C)=C3N=C(/C=C4N=C1[C@@H](CCC(N)=O)C\4(C)C)[C@@H](CCC(N)=O)[C@]\3(C)CC(N)=O)[C@@H](CCC(N)=O)[C@]2(C)CC(N)=O.[C-]#N.[C-]#N.[Co]` (stereo partly drawn) [compound 2, dicyanocobinamide] had a Solubility in data set [1] of 400 mg/mL.

As to Cbi-Ex4 [compound 1], in data set [2] (6, 24, 48 h (72 h in Figure 6D)), the Food intake entry is recorded as “had no effect on food intake; also recorded: had no impact on feeding”. For the same molecule, the Body weight entry in data set [2] (24 h) is listed as “No significant changes in body weight; also recorded: not observed”.

“exendin-4 with K12 azido modification (from UniProt P26349 48-87) (peptide)” showed an EC50 of agonism: cAMP FRET reporter H188 in HEK293 cells stably expressing the human GLP-1R in data set [3] of 0.0125 nM.

Regarding “exendin-4 with an azido-lysine added as residue 40 (from UniProt P26349 48-87) (peptide)”, the EC50 of agonism: cAMP FRET reporter H188 in HEK293 cells stably expressing the human GLP-1R in data set [3] stood at 0.0104 nM.

Turning to “liraglutide (HAEGTFTSDVSSYLEGQAAKEFIAWLVRGRG; chains of the INN, looked up) [GLP-1R agonist]”, in data set [4], the Body weight reduction was 5–6%.

On to “native Exendin-4 (from UniProt P26349 48-87) (peptide)”, for which the EC50 of functional agonism at the rat GLP-1R in data set [5] was found to be 0.048 nM. Further, the pIC50 in data set [6] is 8.30.

With semaglutide, in data set [4], the Body weight reduction is listed as 10–12%.
